Assay results: patent US9227955B2, “Compound having angiogenesis inhibitory activity, method for preparing same, and pharmaceutical composition comprising same” (Boryung Pharmaceutical Co., Ltd., priority 2011, dated 2016)
Marks after values point to notes of the source that are not given here.

Experiments:
[1] = Cell viability MTS assay (cytotoxicity); assay type: cell-based; conditions: human; A-431 cells, 48 hrs incubation; read-out: IC50, MTS assay for cytotoxicity against A-431
Procedure: A-431 ([…], human, ATCC CRL-1555™) cells grown in DMEM (Dulbeco's Modified Eagle's Medium, Gibco #11885) were seeded at a density of 1×10^4 cells/well into 96-well plates and incubated at 37° C. for 18 hrs under the supply of 5% CO2 until the cells stably adhered to the bottom. […] After incubation for 48 hrs in the presence of the test compound, the cells were assayed for viability.
The cells in each well was added with 21 μl of a mixture of 20:1 (v/v) of an MTS solution [(3-(4,5-dimethylthiazol-2-yl)-5-(3-carboxymethoxyphenyl)-2-(4-sulfophenyl)-2H-tetrazolium, Promega, Cat#65421; 2 mg/ml] and a PMS solution [Phenazine methosulfate, Sigma #P9625; 1 mg/ml], and incubated for 2 hrs, followed by measuring absorbance at 490 nm on a microplate reader (Molecular device, spectraMax M2). Relative to the control (media), viability by drug concentration was determined from the measurements of formazan, and the results are given in Table 2, below.

[2] = tested on: HUVECs (human umbelical vein endothelial cells); assay: Transwell assay, VEGF-induced cell migration in HUVECs; assay type: cell-based
Procedure: To examine the inhibitory effect of the compounds obtained in the Examples on VEGF (Vascular endothelial growth factor)-induced cell migration in HUVECs (human umbelical vein endothelial cells), a transwell assay was performed as follows.
HUVECs, provided from ATCC (American Type Culture Collection), were incubated in EGM-2 (Endothelial growth Medium-2 Medium) including 10% FBS, penicillin (100 unit/ml) and 100 μg/ml streptomycin sulfate plus various growth factors at 37° C. in an atmosphere of 5% CO2. After the change of the medium with growth factor-free EBM-2 (Endothelial Basal Medium-2 Medium), the cells were subjected to transwell assay.
After for 24 hours, the cells were fixed for 1 min with ethanol and were stained with a dye. Cell migration was evaluated by counting cells which moved through the pores.
In addition, cells were treated with Compound No. 250 (Example 26) at various concentrations given in Table 3, and assayed for cell migration, as conducted with Compounds 103, 110, 218, 273, 275, 276, 290, 312, 428, 442, and 509. The results were compared with those obtained after non-treatment (no treat) or treatment with 10 ng/mL VEGF.
Results were expressed as average numbers (n=3) of HUVECs which moved cross the membrane. Test results are summarized in Table 3 for compounds 103, 110, 218, 273, 275, 276, 290, 312, 428, 442, and 509, and in Table 4 for compound 250.

[3] = tested on: HUVECs; assay: Wound healing assay, VEGF-induced migration of HUVECs; assay type: cell-based, human
Procedure: Using a sterile, disposable cell scraper (BD Falcon, Bedford, USA), a monolayer of HUVECs was scraped, and the cells were gently washed with PBS. […] After 24 hours, the cell migration were monitored through the scraped monolayer of the cell and photographed under a microscope equipped with a camera (Canon Powershot640).
Also, Compound 250 (Example 26) was applied at various concentrations shown in Table 6 in the same manner as Compound 103, followed by monitoring and photographing the migration of the cells under the microscope. For comparison, the cells were not treated (control) or were treated with 10 ng/mL VEGF, alone.

[4] = tested on: HUVECs; assay: BrdU incorporation assay, VEGF-induced cell proliferation in HUVECs; assay type: cell-based, human
Procedure: A BrdU incorporation assay was carried out to examine whether the proliferation of HUVECs through VEGF-induced DNA synthesis is suppressed by BRN-103. HUVECs grown as in Experimental Example 2 were seeded at a density of 1×10^4 cells/well into 96-well plates. […] Thereafter, DNA synthesis in the cells was fluorescently measured using a BrdU incorporation assay kit (Roche).
Likewise, the cells were treated with various concentrations of Compound 250 (Example 26) given in Table 8, and then with VEGF, as the same manner of that of Compound 103. Intracellular DNA was also quantified, as the same manner of that of Compound 103. For comparison, the cells were not treated (control), or were treated with 10 ng/mL VEGF, alone.

[5] = tested on: HUVECs; assay: VEGF-induced tube formation of HUVECs (capillary structure formation assay); assay type: cell-based, human
Procedure: After HUVECs were seeded at a density of 3×10^5 cells/well into Matrigel-coated 48-well plates, HUVECs were with 10 ng/ml VEGF for 4 hrs. The HUVECs where tubes were formed were monitored and photographed under a microscope equipped with a camera to count cells.
HUVECs were also treated with Compound 250 (Example 26) at various concentrations given in Table 10, The HUVECs where tubes were formed were monitored and photographed under a microscope equipped with a camera, like Compound 103.

[6] = tested on: aortic rings excised from Spague-Dawley rats; assay: Ex vivo microvessel sprouting assay, rat aortic rings; conditions: 10 nM, 50 nM, 100 nM, FIG. 6
Procedure: Likewise, after the aortic rings excised from six-week-old Spague-Dawley rats were treated with various concentrations (10 nM, 50 nM, 100 nM) of Compound 250 (Example 26) and then with VEGF, Sprouts from margins of the aortic rings were photographed under a microscope equipped with a camera, like Compound 103.

[7] = 25 μM, 10 ng/ml VEGF 24 hrs, n=3
[8] = 50 μM, 10 ng/ml VEGF 24 hrs, n=3

## O=C(Nc1ccc(Oc2ccccc2)cc1)c1cccnc1NC1CCN(Cc2ccccc2)CC1 [Compound 110, 2-(1-Benzylpiperidin-4-ylamino)-N-(4-phenoxyphenyl)nicotinamide]
[1]
  IC50 at 48 h: 22.2 µM
[2]; [7]
  No. of migration cells/field: 10*** cells/field

## O=C(Nc1cccc(Cl)c1)c1cccnc1NC1CCN(CCO)CC1 [Compound 218, N-(3-Chlorophenyl)-2-[1-(2-hydroxyethyl)piperidin-4-ylamino]nicotinamide]
[2]; [7]
  No. of migration cells/field: 7.5*** cells/field

## CC(c1ncnc(Cl)c1F)N1CCC(Nc2ncccc2C(=O)Nc2cccc(Cl)c2)CC1 (centres unmarked) [Compound 250, 2-{1-[1-(6-chloro-5-fluoropyrimidin-4-yl)ethyl]piperidin-4-ylamino}-N-(3-chlorophenyl)nicotinamide]
[1]
  IC50 at 48 h: 26.1 µM
[2]; 100 nM, without VEGF
  No. of migration cells/field: 4.5 ± 1.11 cells/field
[2]; VEGF + 25 nM
  No. of migration cells/field: 33 ± 2.54 cells/field
[2]; VEGF + 50 nM
  No. of migration cells/field: 20.3 ± 1.08 cells/field
[2]; VEGF + 100 nM
  No. of migration cells/field: 12.5 ± 2.5 cells/field
[2]; transwell assay, text on Tables 3 and 4
  suppression of VEGF-induced migration of HUVECs, in words: remarkable suppressive effect
[3]; 100 nM, without VEGF
  Wound closure: 125 µm
[3]; VEGF + 25 nM
  Wound closure: 210 µm
[3]; VEGF + 50 nM
  Wound closure: 165 µm
[3]; VEGF + 100 nM
  Wound closure: 120 µm
[3]; wound healing assay, text on Tables 5 and 6
  suppression of VEGF-induced migration of HUVECs, in words: highly suppresses VEGF-induced migration of HUVECs
[4]; 100 nM, without VEGF
  BrdU incorporation: 0.7 ± 0.05 OD 450 nM
[4]; BrdU assay, text on Tables 7 and 8
  inhibition of VEGF-induced proliferation in HUVECs, in words: inhibited VEGF-induced proliferation in HUVECs
[4]; VEGF + 25 nM
  BrdU incorporation: 0.79 ± 0.02 OD 450 nM
[4]; VEGF + 50 nM
  BrdU incorporation: 0.75 ± 0.03 OD 450 nM
[4]; VEGF + 100 nM
  BrdU incorporation: 0.7 ± 0.05 OD 450 nM
[5]; 100 nM, without VEGF
  Number of tubes/field: 27 ± 2 tubes/field
[5]; Tables 9 and 10
  suppression of VEGF-induced tube formation, in words: high suppressive effect on tube formation
[5]; VEGF + 25 nM
  Number of tubes/field: 45 ± 6 tubes/field
[5]; VEGF + 50 nM
  Number of tubes/field: 35 ± 2 tubes/field
[5]; VEGF + 100 nM
  Number of tubes/field: 28 ± 4 tubes/field
[6]
  VEGF-induced aortic sprouting: inhibited VEGF-induced aortic sprouting

## O=C(Nc1cccc(Cl)c1)c1cccnc1N[C@H]1CCCN(Cc2ccccc2)C1 [Compound 273, (S)-2-(1-benzylpiperidin-3-ylamino)-N-(3-chlorophenyl)nicotinamide]
[1]
  IC50 at 48 h: 40.9 µM
[2]; [8]
  No. of migration cells/field: 12*** cells/field

## O=C(Nc1cccc(Cl)c1)c1cccnc1N[C@H]1CCCNC1 [Compound 275, (S)—N-(3-chlorophenyl)-2-(3-piperidylamino)nicotinamide]
[1]
  IC50 at 48 h: 94.6 µM
[2]; [8]
  No. of migration cells/field: 11*** cells/field

## CC(C)(C)OC(=O)N1CCC[C@H](Nc2ncccc2C(=O)Nc2cccc(Cl)c2)C1 [Compound 276, (S)—N-(3-chlorophenyl)-2-(1-tert-butoxycarbamoylpiperidin-3-ylamino)nicotinamide]
[2]; [8]
  No. of migration cells/field: 12.5*** cells/field

## O=C(Nc1cccc(Cl)c1)c1cccnc1SC1CCN(Cc2ccccc2)CC1 [Compound 290, 2-(1-Benzylpiperidin-4-ylsulfanyl)-N-(3-chlorophenyl)nicotinamide]
[1]
  IC50 at 48 h: 54.8 µM
[2]; [8]
  No. of migration cells/field: 14.5*** cells/field

## O=C(Nc1cccc(Cl)c1)c1cc(F)c(Cl)nc1NC1CCN(CCO)CC1 [Compound 312, 6-chloro-N-(3-chlorophenyl)-5-fluoro-2-[1-(2-hydroxyethyl)piperidin-4-ylamino]nicotinamide]
[1]
  IC50 at 48 h: 20.7 µM
[2]; [8]
  No. of migration cells/field: 14*** cells/field

## Cc1cnc(NC(=O)c2cccnc2NC2CCN(Cc3ccccc3)CC2)s1 [Compound 428, 2-(1-Benzylpiperidin-4-ylamino)-N-(5-methylthiazol-2-yl)nicotinamide]
[1]
  IC50 at 48 h: 125 µM
[2]; [7]
  No. of migration cells/field: 14.5*** cells/field

## CCCCC(CC)CNC(=O)c1cccnc1NC1CCN(Cc2ccccc2)CC1 (centres unmarked) [Compound 436, 2-(1-Benzylpiperidin-4-ylamino)-N-(2-ethylhexyl)nicotinamide]
[1]
  IC50 at 48 h: 34 µM

## COC(=O)c1c(NC(=O)c2cccnc2NC2CCN(Cc3ccccc3)CC2)sc2c1CCNC2 [Compound 442, 2-{[2-(1-Benzylpiperidin-4-ylamino)pyridine-3-carbonyl]amino}-4,5,6,7-tetrahydro-thieno[2,3-c]pyridine-3-carboxylic acid methyl ester]
[2]; [7]
  No. of migration cells/field: 15*** cells/field

## COc1ccc(NC(=O)c2cccnc2NC2CCN(Cc3ccccc3)CC2)cc1OC [Compound 443, 2-(1-Benzylpiperidin-4-ylamino)-N-(3,4-dimethoxyphenyl)nicotinamide]
[1]
  IC50 at 48 h: 140 µM

## COC(=O)c1c(NC(=O)c2cccnc2NC2CCCN(Cc3ccccc3)C2)sc2c1CCNC2 (centres unmarked) [Compound 509, 2-{[2-(1-benzylpiperidin-3-ylamino)pyridine-3-carbonyl]amino}-4,5,6,7-tetrahydrothieno[2,3-c]pyridine-3-carboxylic acid methyl ester]
[2]; [7]
  No. of migration cells/field: 7*** cells/field

## CCCCC(CC)CNC(=O)c1ccc(Cl)nc1NC1CCN(CCO)CC1 (centres unmarked) [Compound 515, 6-Chloro-N-(2-ethylhexyl)-2-[1-(2-hydroxyethyl)piperidin-4-ylamino]nicotinamide]
[1]
  IC50 at 48 h: 23.8 µM

## CCCCC(CC)CNC(=O)c1cccnc1NC1CC(C)(C)NC(C)(C)C1 (centres unmarked) [Compound 517, N-(2-ethylhexyl)-2-(2,2,6,6-tetramethylpiperidin-4-ylamino)nicotinamide]
[1]
  IC50 at 48 h: 50.7 µM

## CCN(CC)CCNC(=O)c1c(C)[nH]c(/C=C2\C(=O)Nc3ccc(F)cc32)c1C [Sunitinib, sunitinib, reference compound]
[1]
  IC50 at 48 h: 22 µM
[2]; 1 μM, 10 ng/ml VEGF 24 hrs, n=3
  No. of migration cells/field: 16.5*** cells/field
[3]; VEGF + 1 μM, 24 hrs
  Wound closure: 210 µm
[4]; VEGF + 1 μM, 24 hrs
  BrdU incorporation: 0.84*** OD 450 nm
[5]; VEGF + 1 μM, 4 hrs
  Number of tubes/field: 100*** tubes/Field
